Laboratory results: ChEMBL document CHEMBL1128258, “[[(Guaninylalkyl)phosphinico]methyl]phosphonic acids. Multisubstrate analogue inhibitors of human erythrocyte purine nucleoside phosphorylase” (J Med Chem, 1995)

Tests used:
[1] = biological target: T1, Purine nucleoside phosphorylase (Homo sapiens, UniProt P00491); assay: Inhibition of human erythrocyte purine nucleoside phosphorylase (PNPase) in the presence of zinc chloride
T1 sequence (P00491 whole entry): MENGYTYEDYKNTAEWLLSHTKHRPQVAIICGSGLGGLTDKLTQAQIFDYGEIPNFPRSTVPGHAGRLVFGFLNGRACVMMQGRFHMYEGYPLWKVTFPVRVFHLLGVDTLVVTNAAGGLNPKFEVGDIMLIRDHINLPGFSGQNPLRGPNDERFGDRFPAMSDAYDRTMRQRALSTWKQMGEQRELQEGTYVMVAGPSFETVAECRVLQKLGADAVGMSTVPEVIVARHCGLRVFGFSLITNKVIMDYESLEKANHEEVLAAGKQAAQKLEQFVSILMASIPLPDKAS

[2] = biological target: T1, Purine nucleoside phosphorylase; assay: Inhibition of human erythrocyte purine nucleoside phosphorylase (PNPase) in the presence of ethylenediaminetetraacetic acid (Na2 EDTA)

| Structure (SMILES) | Ki [1] [nM] | Ki [2] [nM] |
| --- | --- | --- |
| CCOP(=O)(O)CP(=O)(O)CCCCCn1cnc2c(O)nc(N)nc21 | 1100 | 14000 |
| Nc1nc(O)c2ncn(CCCCP(=O)(O)CP(=O)(O)O)c2n1 | 100 | 1400 |
| O=c1[nH]c(=O)c2ncn(CCCCCP(=O)(O)CP(=O)(O)O)c2[nH]1 | 1400 | 270000 |

Next, values leading:

| Ki [1] [nM] | Ki [2] [nM] | Structure (SMILES) |
| --- | --- | --- |
| 10 | 1100 | Nc1nc(O)c2ncn(CCCCCCCP(=O)(O)CP(=O)(O)O)c2n1 |
| 3.7 | 390 | Nc1nc(O)c2ncn(CCCCCCP(=O)(O)CP(=O)(O)O)c2n1 |
